We go through one compound from ChEMBL document CHEMBL5696441 (Nat Chem Biol, 2011).

Molecules are shown by their SMILES. pIC50: −log10 of the molar value. Activity calls are given as the source filed them. The calls are words filed in the database; no cut-off is given here.

Data set [1] has as its target T1, Mitogen-activated protein kinase 12 (Homo sapiens) (UniProt P53778).
T1 sequence (whole entry): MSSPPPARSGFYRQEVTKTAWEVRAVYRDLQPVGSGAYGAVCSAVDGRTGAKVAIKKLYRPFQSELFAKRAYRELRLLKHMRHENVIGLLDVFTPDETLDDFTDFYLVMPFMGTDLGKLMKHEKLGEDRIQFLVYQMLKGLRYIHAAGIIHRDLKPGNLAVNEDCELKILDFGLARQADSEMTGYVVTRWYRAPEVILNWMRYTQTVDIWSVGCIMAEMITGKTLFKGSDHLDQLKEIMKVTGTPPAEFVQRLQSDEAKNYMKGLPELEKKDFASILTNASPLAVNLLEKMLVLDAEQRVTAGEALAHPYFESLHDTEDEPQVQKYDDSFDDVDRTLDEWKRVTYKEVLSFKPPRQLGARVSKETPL
Nature of the data set: Inhibition of human P38gamma assessed as residual activity at 1 uM using RBER-IRStide as substrate in presence of 33P-ATP by ProQinase assay relative to control.

Data set [2] deals with Calcium/calmodulin-dependent protein kinase kinase 2 (Homo sapiens) (UniProt Q96RR4). Nature of the data set: Inhibition of human CAMKK2 assessed as residual activity at 1 uM using RBER-GSK3 as substrate in presence of 33P-ATP by ProQinase assay relative to control.
Calcium/calmodulin-dependent protein kinase kinase 2 (Homo sapiens), sequence (Q96RR4 2-588 limits assumed): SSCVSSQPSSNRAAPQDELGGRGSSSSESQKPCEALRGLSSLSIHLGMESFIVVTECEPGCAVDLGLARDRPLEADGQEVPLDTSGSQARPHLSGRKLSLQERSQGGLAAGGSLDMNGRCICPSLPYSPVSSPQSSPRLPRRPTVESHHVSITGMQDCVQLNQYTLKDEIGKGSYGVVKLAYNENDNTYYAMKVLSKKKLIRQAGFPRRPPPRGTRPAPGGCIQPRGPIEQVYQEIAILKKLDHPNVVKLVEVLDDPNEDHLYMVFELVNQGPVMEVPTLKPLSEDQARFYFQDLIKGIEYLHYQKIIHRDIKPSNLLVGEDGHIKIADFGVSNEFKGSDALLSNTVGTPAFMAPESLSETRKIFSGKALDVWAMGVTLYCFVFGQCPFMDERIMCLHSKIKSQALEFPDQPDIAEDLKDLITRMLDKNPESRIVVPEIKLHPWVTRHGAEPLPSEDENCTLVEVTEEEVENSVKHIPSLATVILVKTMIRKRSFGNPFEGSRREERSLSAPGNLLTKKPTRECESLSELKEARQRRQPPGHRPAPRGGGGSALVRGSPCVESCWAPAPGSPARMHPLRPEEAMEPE
Data set [3] concerns the target T2, Ephrin type-A receptor 1 (Homo sapiens) (UniProt P21709).
T2 sequence (whole entry): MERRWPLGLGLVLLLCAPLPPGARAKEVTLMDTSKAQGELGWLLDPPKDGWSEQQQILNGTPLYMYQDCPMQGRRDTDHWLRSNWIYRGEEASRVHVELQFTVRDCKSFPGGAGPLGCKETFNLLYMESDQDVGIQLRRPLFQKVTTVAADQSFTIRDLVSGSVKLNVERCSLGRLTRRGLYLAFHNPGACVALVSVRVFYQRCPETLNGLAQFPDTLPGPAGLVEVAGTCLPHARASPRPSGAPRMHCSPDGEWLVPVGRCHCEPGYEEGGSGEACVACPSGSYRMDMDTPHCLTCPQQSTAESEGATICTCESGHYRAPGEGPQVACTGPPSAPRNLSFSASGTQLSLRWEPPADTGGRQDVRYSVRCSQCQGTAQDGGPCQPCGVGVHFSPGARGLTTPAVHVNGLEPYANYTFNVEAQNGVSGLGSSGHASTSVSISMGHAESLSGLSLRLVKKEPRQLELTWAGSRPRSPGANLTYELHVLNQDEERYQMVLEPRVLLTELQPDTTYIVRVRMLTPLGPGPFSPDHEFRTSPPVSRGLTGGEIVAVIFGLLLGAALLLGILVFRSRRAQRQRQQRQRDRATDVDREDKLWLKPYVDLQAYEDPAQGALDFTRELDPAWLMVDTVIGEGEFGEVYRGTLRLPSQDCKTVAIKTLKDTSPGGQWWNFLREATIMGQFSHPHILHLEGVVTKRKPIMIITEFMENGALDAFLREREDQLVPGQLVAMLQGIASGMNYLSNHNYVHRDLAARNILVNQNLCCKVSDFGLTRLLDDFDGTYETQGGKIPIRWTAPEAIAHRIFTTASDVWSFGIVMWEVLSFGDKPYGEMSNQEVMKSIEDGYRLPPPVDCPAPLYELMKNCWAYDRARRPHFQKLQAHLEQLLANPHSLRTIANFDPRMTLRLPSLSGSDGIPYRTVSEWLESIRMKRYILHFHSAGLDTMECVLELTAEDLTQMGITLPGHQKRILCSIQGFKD
Nature of the data set: Inhibition of human EPHA1 assessed as residual activity at 1 uM using polyEY as substrate in presence of 33P-ATP by ProQinase assay relative to control.

The next data set has as its system PBMC. Nature of the data set: Anti-inflammatory activity against human derived high respond PBMC cells assessed as increase in stimulated IL-12p70 cytokine release at 1 uM incubated for 2 hrs in the presence of LPS/SEB/aCD28 by Luminex based sandwich immunoassay. The data set is classed as functional, cell-based.
In data set [4] the target is Interferon-induced, double-stranded RNA-activated protein kinase (Homo sapiens) (UniProt P19525). Nature of the data set: Inhibition of human EIF2AK2 assessed as residual activity at 1 uM using RB-CTF as substrate in presence of 33P-ATP by ProQinase assay relative to control.
Interferon-induced, double-stranded RNA-activated protein kinase (Homo sapiens), sequence (P19525 whole entry): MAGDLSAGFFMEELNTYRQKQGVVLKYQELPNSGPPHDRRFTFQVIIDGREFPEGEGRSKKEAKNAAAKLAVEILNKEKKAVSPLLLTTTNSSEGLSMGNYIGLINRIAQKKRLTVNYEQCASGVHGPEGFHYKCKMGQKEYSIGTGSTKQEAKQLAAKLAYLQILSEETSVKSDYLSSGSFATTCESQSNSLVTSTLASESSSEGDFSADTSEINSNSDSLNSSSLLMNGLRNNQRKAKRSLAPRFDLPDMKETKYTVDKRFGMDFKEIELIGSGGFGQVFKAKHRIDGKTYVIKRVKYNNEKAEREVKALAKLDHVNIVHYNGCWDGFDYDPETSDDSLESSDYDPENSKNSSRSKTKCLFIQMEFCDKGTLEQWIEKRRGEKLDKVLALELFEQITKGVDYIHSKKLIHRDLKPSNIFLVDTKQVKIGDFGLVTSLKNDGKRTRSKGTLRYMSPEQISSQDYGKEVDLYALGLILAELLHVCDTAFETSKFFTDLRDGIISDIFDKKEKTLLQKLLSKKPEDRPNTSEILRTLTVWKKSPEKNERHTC
The target of data set [5] is Glycogen synthase kinase-3 alpha (Homo sapiens) (UniProt P49840). Nature of the data set: Inhibition of human GSK3alpha assessed as residual activity at 1 uM using SUPT5 754-837 as substrate in presence of 33P-ATP by ProQinase assay relative to control.
Glycogen synthase kinase-3 alpha (Homo sapiens), sequence (P49840 2-483 limits assumed): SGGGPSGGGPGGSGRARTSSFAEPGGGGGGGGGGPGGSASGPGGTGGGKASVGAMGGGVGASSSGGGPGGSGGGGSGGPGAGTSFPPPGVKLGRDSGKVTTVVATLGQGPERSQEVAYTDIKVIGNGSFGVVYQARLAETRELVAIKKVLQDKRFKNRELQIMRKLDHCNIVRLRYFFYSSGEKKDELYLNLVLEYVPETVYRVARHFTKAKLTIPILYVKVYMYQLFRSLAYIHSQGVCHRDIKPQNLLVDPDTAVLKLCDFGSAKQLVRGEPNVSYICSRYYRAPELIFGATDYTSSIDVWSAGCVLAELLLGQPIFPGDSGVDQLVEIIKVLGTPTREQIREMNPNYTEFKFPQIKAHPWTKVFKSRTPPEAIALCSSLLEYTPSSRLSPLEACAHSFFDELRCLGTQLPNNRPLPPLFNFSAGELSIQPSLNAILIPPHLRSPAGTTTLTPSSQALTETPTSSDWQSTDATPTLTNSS
The target in data set [6] is Serine/threonine-protein kinase TBK1 (Homo sapiens) (UniProt Q9UHD2). Nature of the data set: Inhibition of TBK1 (unknown origin) assessed as remaining activity at 1 uM by Kinome scan method relative to control.
A short description of data set [7]: Anti-inflammatory activity against human derived high respond PBMC cells assessed as inhibition in stimulated IP-10 chemokine release incubated for 2 hrs in the presence of LPS/SEB/aCD28 by Luminex based sandwich immunoassay. The data set is classed as functional, cell-based.
For data set [8], the target named is Serine/threonine-protein kinase N1 (Homo sapiens) (UniProt Q16512). Nature of the data set: Inhibition of human PRK1 assessed as residual activity at 1 uM using RBER-CHKtide as substrate in presence of 33P-ATP by ProQinase assay relative to control.
Serine/threonine-protein kinase N1 (Homo sapiens), sequence (Q16512 2-942 limits assumed): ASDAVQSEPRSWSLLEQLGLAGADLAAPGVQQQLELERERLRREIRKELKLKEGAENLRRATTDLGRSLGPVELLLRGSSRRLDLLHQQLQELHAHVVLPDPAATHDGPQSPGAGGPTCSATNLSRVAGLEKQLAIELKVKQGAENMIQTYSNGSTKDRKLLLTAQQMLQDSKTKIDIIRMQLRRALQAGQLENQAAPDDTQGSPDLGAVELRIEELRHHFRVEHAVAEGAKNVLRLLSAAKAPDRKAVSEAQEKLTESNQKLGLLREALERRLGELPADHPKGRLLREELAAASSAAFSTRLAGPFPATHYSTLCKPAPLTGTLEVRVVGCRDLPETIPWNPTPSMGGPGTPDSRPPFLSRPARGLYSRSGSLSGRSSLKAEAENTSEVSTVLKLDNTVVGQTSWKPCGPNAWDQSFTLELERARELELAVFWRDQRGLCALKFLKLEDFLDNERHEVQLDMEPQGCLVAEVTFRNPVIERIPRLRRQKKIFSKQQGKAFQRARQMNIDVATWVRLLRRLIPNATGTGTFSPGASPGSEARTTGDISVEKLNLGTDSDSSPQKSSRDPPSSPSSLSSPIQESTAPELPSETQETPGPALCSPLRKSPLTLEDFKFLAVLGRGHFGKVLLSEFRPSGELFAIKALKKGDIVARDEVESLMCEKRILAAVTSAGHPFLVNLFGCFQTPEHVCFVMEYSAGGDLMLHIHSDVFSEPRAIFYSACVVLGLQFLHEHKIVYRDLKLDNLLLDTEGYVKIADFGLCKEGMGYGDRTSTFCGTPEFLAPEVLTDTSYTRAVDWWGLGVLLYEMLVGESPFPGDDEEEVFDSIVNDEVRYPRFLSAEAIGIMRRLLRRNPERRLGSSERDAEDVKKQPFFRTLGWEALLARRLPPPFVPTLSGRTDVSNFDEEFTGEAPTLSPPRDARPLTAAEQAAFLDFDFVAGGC
The nature of data set [9]: Plasma concentration in Gal/LPS induced mouse at 3 mg/kg, po for 1 hrs. The data set is classed as ADME, organism-based.
Data set [10] concerns the target CDK2/Cyclin A2 (Homo sapiens) (UniProt P24941+P20248). Nature of the data set: Inhibition of human CDK2/CycA2 assessed as residual activity at 1 uM using RBER-CHKtide as substrate in presence of 33P-ATP by ProQinase assay relative to control. Type of data set: protein-complex assay.
For data set [11], the target named is Ephrin type-A receptor 7 (Homo sapiens) (UniProt Q15375). Nature of the data set: Inhibition of human EPHA7 assessed as residual activity at 1 uM using polyEy as substrate in presence of 33P-ATP by ProQinase assay relative to control.
Data set [12] can be described thus: Anti-inflammatory activity against human derived high respond PBMC cells assessed as inhibition in stimulated IL-10 cytokine release incubated for 2 hrs in the presence of LPS/SEB/aCD28 by Luminex based sandwich immunoassay. Type of data set: functional, cell-based.
For data set [13], the system named is Hepatocyte growth factor receptor (Homo sapiens), P08581 [Y1235D]. Nature of the data set: Inhibition of human MET Y1235D mutant assessed as residual activity at 1 uM using PolyEY as substrate in presence of 33P-ATP by ProQinase assay relative to control.
In data set [14] the target is Ephrin type-B receptor 2 (Homo sapiens) (UniProt P29323). Nature of the data set: Inhibition of human EPHB2 assessed as residual activity at 1 uM using poly(Ala,Glu,Lys,Tyr)6:2:5:1 as substrate in presence of 33P-ATP by ProQinase assay relative to control.
For data set [15], the system named is Leucine-rich repeat serine/threonine-protein kinase 2 (Homo sapiens), Q5S007 [I2020T]. Nature of the data set: Inhibition of human LRRK2 I2020T mutant assessed as residual activity at 1 uM using RBER-CHKtide as substrate in presence of 33P-ATP by ProQinase assay relative to control.
Leucine-rich repeat serine/threonine-protein kinase 2 (Homo sapiens), Q5S007 [I2020T], sequence (Q5S007 whole entry I2020T): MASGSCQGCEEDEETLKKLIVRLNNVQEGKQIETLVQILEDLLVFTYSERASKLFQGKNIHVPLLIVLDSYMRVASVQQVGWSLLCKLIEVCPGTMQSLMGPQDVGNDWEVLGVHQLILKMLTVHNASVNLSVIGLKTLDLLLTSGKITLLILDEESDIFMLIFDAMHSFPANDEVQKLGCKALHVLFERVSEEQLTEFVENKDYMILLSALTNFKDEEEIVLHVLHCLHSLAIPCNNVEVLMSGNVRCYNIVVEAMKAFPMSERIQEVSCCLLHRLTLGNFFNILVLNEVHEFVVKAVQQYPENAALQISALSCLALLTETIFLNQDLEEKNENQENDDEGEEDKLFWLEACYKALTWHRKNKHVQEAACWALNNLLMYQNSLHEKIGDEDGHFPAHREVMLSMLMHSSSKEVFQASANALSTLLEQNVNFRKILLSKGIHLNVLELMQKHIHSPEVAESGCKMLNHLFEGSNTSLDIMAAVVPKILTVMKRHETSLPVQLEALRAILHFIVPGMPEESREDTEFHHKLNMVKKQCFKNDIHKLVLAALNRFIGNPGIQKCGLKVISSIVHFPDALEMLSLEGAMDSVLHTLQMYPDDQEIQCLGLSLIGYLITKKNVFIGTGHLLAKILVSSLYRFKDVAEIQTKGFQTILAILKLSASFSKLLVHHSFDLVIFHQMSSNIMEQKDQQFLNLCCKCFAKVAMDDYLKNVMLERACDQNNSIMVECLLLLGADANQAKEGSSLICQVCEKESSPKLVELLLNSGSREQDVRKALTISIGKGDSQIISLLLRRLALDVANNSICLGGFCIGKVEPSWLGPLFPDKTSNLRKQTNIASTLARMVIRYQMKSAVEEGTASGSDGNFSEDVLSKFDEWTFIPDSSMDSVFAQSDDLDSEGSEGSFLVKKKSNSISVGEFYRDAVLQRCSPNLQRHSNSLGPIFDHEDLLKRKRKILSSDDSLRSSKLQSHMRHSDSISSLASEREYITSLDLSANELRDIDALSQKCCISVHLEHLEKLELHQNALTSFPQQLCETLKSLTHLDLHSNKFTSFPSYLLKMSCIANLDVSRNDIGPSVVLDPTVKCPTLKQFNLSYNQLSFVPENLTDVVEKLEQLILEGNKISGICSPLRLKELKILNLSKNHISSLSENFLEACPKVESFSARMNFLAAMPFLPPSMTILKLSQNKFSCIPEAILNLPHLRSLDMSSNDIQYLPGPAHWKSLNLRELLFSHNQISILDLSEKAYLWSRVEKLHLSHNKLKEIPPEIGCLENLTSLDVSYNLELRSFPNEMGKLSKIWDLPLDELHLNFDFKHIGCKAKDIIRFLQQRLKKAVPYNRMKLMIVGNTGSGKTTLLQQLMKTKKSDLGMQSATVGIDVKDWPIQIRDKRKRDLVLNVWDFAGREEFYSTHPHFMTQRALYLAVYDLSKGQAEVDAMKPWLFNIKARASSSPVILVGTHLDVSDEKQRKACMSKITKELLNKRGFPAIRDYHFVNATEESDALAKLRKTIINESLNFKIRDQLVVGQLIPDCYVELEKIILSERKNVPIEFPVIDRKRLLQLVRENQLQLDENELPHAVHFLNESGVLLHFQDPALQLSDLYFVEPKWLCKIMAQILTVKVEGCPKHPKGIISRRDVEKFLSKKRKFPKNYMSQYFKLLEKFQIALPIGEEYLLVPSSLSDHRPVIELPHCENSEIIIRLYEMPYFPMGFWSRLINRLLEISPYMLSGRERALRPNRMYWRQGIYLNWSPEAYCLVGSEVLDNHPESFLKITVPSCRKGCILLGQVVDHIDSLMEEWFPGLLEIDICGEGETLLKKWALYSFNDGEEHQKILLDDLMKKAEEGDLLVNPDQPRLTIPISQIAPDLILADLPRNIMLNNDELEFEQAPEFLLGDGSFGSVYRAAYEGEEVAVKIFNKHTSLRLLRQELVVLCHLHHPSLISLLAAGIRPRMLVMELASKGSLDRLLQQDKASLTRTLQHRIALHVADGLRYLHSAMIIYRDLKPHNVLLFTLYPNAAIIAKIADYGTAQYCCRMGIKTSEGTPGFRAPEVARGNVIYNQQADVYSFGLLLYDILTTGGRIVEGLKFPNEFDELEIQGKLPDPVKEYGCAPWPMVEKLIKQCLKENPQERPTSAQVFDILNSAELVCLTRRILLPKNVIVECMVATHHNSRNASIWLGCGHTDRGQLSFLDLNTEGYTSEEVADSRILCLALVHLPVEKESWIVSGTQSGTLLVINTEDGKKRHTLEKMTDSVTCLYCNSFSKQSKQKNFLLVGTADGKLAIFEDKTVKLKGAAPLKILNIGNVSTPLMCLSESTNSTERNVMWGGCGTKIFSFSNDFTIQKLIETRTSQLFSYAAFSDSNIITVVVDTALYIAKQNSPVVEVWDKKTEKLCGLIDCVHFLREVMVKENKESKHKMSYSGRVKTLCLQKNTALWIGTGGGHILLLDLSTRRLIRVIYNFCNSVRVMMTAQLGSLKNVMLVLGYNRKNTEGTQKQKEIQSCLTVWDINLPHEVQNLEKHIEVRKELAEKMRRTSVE

As to `O=C1c2ccc(Nc3ccc(F)cc3F)cc2CCc2ccc(OC[C@H](O)CO)cc21` [Skepinone-L], the Activity was determined as 102% in data set [1]; 97% in data set [2]; 115% in [3]; 86% in data set [4]; 93% in data set [5]; 100% in [6]. Moreover, the Activity was 92% in data set [8]; 101% in data set [10]; 109% in data set [11]; 114% in data set [13]; 91% in [14]; 94% in data set [15]. Also, the result in the data set on PBMC was Active. In addition, the IC50 result in data set [7] is on record as “Not Active”. Moreover, the concentration at 1 h in data set [9] was found to be 240 nM. Besides, the negative logarithm of the IC50 (pIC50) in data set [12] is 7.30.

As usually defined, the pIC50 is −log10 of the IC50, conventionally taken in molar units.
